# From patent US20240174618A1, “SUBSTITUTED (2-HETEROARYLOXYPHENYL)SULFONATES, SALTS THEREOF AND THEIR USE AS HERBICIDAL AGENTS” (Bayer Aktiengesellschaft, priority 2021, published 2024)
# Legend:
# Type in all cases: in vivo
# Setaria viridis (SETVI) = test: A. Herbicidal pre-emergence efficacy, SETVI
# Description: (§1) Seeds of mono- and dicotyledonous weed plants were placed in plastic pots in sandy loam soil (doubly sown with one species each of mono- or dicotyledonous weed plants per pot) and covered with soil. The compounds of the invention, formulated in the form of wettable powders (WP) or as emulsion concentrates (EC), were then applied onto the surface of the covering soil as aqueous suspension or emulsion with addition of 0.5% additive at a water application rate of 600 liters per hectare (converted). After the treatment, the pots were placed in a greenhouse and kept under good growth conditions for the test plants. After about 3 weeks, the efficacy of the preparations was scored visually in comparison with untreated controls as percentages.
# (§2) For example, • 100% efficacy=plants have died, • 0% efficacy=like untreated control plants.
# (§3) Tables A1a to A12c below show the effects of selected compounds of the general formula (I) according to table 1 on various harmful plants at an application rate corresponding to 1280 g/ha or less, which were obtained by the experimental procedure mentioned above.
# [1] = test system: Abutilon theophrasti (ABUTH); test: A. Herbicidal pre-emergence efficacy, ABUTH; conditions: scored visually after about 3 weeks vs untreated controls
# Description: as §1, §2, §3
# [2] = test system: Echinochloa crus-galli (ECHCG); test: A. Herbicidal pre-emergence efficacy, ECHCG; conditions: scored visually after about 3 weeks vs untreated controls
# Description: as §1, §2, §3
# Stellaria media (STEME) [3] = test: A. Herbicidal pre-emergence efficacy, STEME
# Description: as §1, §2, §3
# Poa annua (POAAN) [4] = test: B. Herbicidal post-emergence efficacy, POAAN; conditions: 1280 g/ha
# Experimental: (§4) Seeds of mono- and dicotyledonous weed plants were placed in plastic pots in sandy loam soil (doubly sown with in each case one species of mono- or dicotyledonous weed plants per pot), covered with soil and cultivated in a greenhouse under controlled growth conditions. 2 to 3 weeks after sowing, the test plants were treated at the one-leaf stage. The compounds of the invention, formulated in the form of wettable powders (WP) or as emulsion concentrates (EC), were applied onto the green parts of the plants as aqueous suspension or emulsion with addition of 0.5% additive at a water application rate of 600 liters per hectare (converted). After the test plants had been kept in the greenhouse under optimum growth conditions for about 3 weeks, the activity of the preparations was rated visually in comparison to untreated controls.
# (§5) For example, • 100% efficacy=plants have died, • 0% efficacy=like untreated control plants
# (§6) Tables B1a to B12c below show the effects of selected inventive compounds of the general formula (I) according to table 1 on various harmful plants at an application rate corresponding to 1280 g/ha or less, which were obtained by the experimental procedure mentioned above.
# Poa annua (POAAN) [5] = test: A. Herbicidal pre-emergence efficacy, POAAN
# Description: as §1, §2, §3
# [6] = test system: Amaranthus retroflexus (AMARE); test: B. Herbicidal post-emergence efficacy, AMARE
# Experimental: as §4, §5, §6
# [7] = test system: Amaranthus retroflexus (AMARE); test: A. Herbicidal pre-emergence efficacy, AMARE
# Description: as §1, §2, §3
# [8] = test system: Abutilon theophrasti (ABUTH); test: B. Herbicidal post-emergence efficacy, ABUTH; conditions: rated visually after about 3 weeks
# Experimental: as §4, §5, §6
# Kochia scoparia (KCHSC) [9] = test: B. Herbicidal post-emergence efficacy, KCHSC; conditions: for Post-emergence efficacy against KCHSC in %: rated visually after about 3 weeks; for Post-emergence efficacy against KCHSC: 1280 g/ha
# Experimental: as §4, §5, §6
# Lolium rigidum (LOLRI) = test: A. Herbicidal pre-emergence efficacy, LOLRI; conditions: dosage 1280 g/ha
# Description: as §1, §2, §3
# [10] = test system: Digitaria sanguinalis (DIGSA); test: A. Herbicidal pre-emergence efficacy, DIGSA; conditions: scored visually after about 3 weeks vs untreated controls
# Description: as §1, §2, §3
# Stellaria media (STEME) [11] = test: B. Herbicidal post-emergence efficacy, STEME
# Experimental: as §4, §5, §6
# Veronica persica (VERPE) [12] = test: B. Herbicidal post-emergence efficacy, VERPE
# Experimental: as §4, §5, §6
# Veronica persica (VERPE) [13] = test: A. Herbicidal pre-emergence efficacy, VERPE; conditions: 1280 g/ha
# Description: as §1, §2, §3
# Kochia scoparia (KCHSC) [14] = test: A. Herbicidal pre-emergence efficacy, KCHSC
# Description: as §1, §2, §3
# [15] = test system: Echinochloa crus-galli (ECHCG); test: B. Herbicidal post-emergence efficacy, ECHCG; conditions: 1280 g/ha, rated visually after about 3 weeks
# Experimental: as §4, §5, §6
# [16] = pre-emergence, dosage 1280 g/ha
SMILES,Pre-emergence efficacy against SETVI (Setaria viridis (SETVI); dosage 1280 g/ha) [%],Pre-emergence efficacy against ABUTH ([1]; 1280 g/ha) [%],Pre-emergence efficacy against ECHCG ([2]; 1280 g/ha) [%],Pre-emergence efficacy against STEME (Stellaria media (STEME) [3]; dosage 1280 g/ha) [%],Post-emergence efficacy against POAAN (Poa annua (POAAN) [4]) [%],Pre-emergence efficacy against POAAN (Poa annua (POAAN) [5]; dosage 1280 g/ha) [%],Post-emergence efficacy against AMARE ([6]; 320 g/ha) [%],Post-emergence efficacy against AMARE ([6]; 1280 g/ha) [%],Pre-emergence efficacy against AMARE in % ([7]; 80 g/ha) [%],Pre-emergence efficacy against AMARE in % ([7]; 320 g/ha) [%],Pre-emergence efficacy against AMARE in % ([7]; 1280 g/ha) [%],Post-emergence efficacy against ABUTH in % ([8]; 320 g/ha) [%],Post-emergence efficacy against KCHSC in % (Kochia scoparia (KCHSC) [9]; 320 g/ha) [%],Post-emergence efficacy against KCHSC (Kochia scoparia (KCHSC) [9]) [%],Pre-emergence efficacy against DIGSA ([10]; 1280 g/ha) [%],Post-emergence efficacy against STEME (Stellaria media (STEME) [11]; 1280 g/ha) [%],Post-emergence efficacy against VERPE (Veronica persica (VERPE) [12]; 80 g/ha) [%],Post-emergence efficacy against VERPE (Veronica persica (VERPE) [12]; 320 g/ha) [%],Post-emergence efficacy against VERPE (Veronica persica (VERPE) [12]; 1280 g/ha) [%],Pre-emergence efficacy against KCHSC (Kochia scoparia (KCHSC) [14]; [16]) [%],further results
CCC(C)S(=O)(=O)Oc1ccccc1Oc1ncc(Cl)cn1 (stereo not drawn) [Example I-22],100,100,90,100,90,90,90,100,90,90,100,90,90,100,100,90,90,100,100,100,"Pre-emergence efficacy against SETVI (Setaria viridis (SETVI); dosage 320 g/ha): 90%; Pre-emergence efficacy against ABUTH ([1]; 320 g/ha): 100%; Pre-emergence efficacy against ECHCG ([2]; 320 g/ha): 90%; Pre-emergence efficacy against STEME (Stellaria media (STEME) [3]; dosage 80 g/ha): 100%; Pre-emergence efficacy against STEME (Stellaria media (STEME) [3]; dosage 320 g/ha): 100%; Post-emergence efficacy against ABUTH in % ([8]; 1280 g/ha): 100%; Post-emergence efficacy against KCHSC in % (Kochia scoparia (KCHSC) [9]; 80 g/ha): 90%; Pre-emergence efficacy against LOLRI (Lolium rigidum (LOLRI)): 90%; Pre-emergence efficacy against DIGSA ([10]; 320 g/ha): 100%; Post-emergence efficacy against STEME (Stellaria media (STEME) [11]; 80 g/ha): 90%; Post-emergence efficacy against STEME (Stellaria media (STEME) [11]; 320 g/ha): 90%; Pre-emergence efficacy against VERPE in % (Veronica persica (VERPE) [13]): 90%; Pre-emergence efficacy against KCHSC (Kochia scoparia (KCHSC) [14]; pre-emergence, dosage 320 g/ha): 90%"
O=S(=O)(Oc1ccccc1Oc1ncc(Cl)cn1)C1CCCC1 [Example I-19],100,100,90,100,90,90,90,100,90,100,100,90,90,100,100,100,90,90,100,90,"Pre-emergence efficacy against SETVI (Setaria viridis (SETVI); dosage 320 g/ha): 90%; Pre-emergence efficacy against ABUTH ([1]; 320 g/ha): 90%; Pre-emergence efficacy against STEME (Stellaria media (STEME) [3]; dosage 320 g/ha): 100%; Post-emergence efficacy against ECHCG in % [15]: 90%; Post-emergence efficacy against ABUTH in % ([8]; 1280 g/ha): 90%; Pre-emergence efficacy against DIGSA ([10]; 80 g/ha): 100%; Pre-emergence efficacy against DIGSA ([10]; 320 g/ha): 100%; Post-emergence efficacy against STEME (Stellaria media (STEME) [11]; 80 g/ha): 90%; Post-emergence efficacy against STEME (Stellaria media (STEME) [11]; 320 g/ha): 100%; Pre-emergence efficacy against KCHSC (Kochia scoparia (KCHSC) [14]; pre-emergence, dosage 320 g/ha): 90%"
O=S(=O)(CCCCl)Oc1ccccc1Oc1ncc(Cl)cc1F [Example I-64],100,,100,90,90,100,90,90,,90,100,90,90,90,100,90,90,90,90,90,Post-emergence efficacy against ECHCG in % [15]: 90%; Post-emergence efficacy against AMARE ([6]; 80 g/ha): 90%; Post-emergence efficacy against ABUTH in % ([8]; 1280 g/ha): 90%; Post-emergence efficacy against KCHSC in % (Kochia scoparia (KCHSC) [9]; 80 g/ha): 90%; Pre-emergence efficacy against DIGSA ([10]; 320 g/ha): 90%; Pre-emergence efficacy against VERPE in % (Veronica persica (VERPE) [13]): 100%
O=S(=O)(Oc1ccccc1Oc1ncc(Cl)cn1)C1CC1 [Example I-21],100,100,100,100,100,100,100,100,100,100,100,,100,100,100,100,90,100,100,100,"Pre-emergence efficacy against STEME (Stellaria media (STEME) [3]; dosage 320 g/ha): 100%; Pre-emergence efficacy against POAAN (Poa annua (POAAN) [5]; dosage 320 g/ha): 100%; Post-emergence efficacy against AMARE ([6]; 80 g/ha): 90%; Post-emergence efficacy against KCHSC in % (Kochia scoparia (KCHSC) [9]; 80 g/ha): 90%; Pre-emergence efficacy against DIGSA ([10]; 320 g/ha): 100%; Post-emergence efficacy against STEME (Stellaria media (STEME) [11]; 320 g/ha): 90%; Pre-emergence efficacy against VERPE in % (Veronica persica (VERPE) [13]): 90%; Pre-emergence efficacy against KCHSC (Kochia scoparia (KCHSC) [14]; 80 g/ha, scored visually after about 3 weeks vs untreated controls): 90%; Pre-emergence efficacy against KCHSC (Kochia scoparia (KCHSC) [14]; pre-emergence, dosage 320 g/ha): 100%"
Cc1cccc(Oc2ncc(Cl)cn2)c1OS(=O)(=O)CCCC(F)(F)C(F)(F)F [Example I-69],100,90,90,90,90,,100,100,90,100,100,90,100,100,90,100,100,100,100,90,Post-emergence efficacy against ECHCG in % [15]: 100%; Post-emergence efficacy against AMARE ([6]; 80 g/ha): 100%; Post-emergence efficacy against ABUTH in % ([8]; 80 g/ha): 90%; Post-emergence efficacy against ABUTH in % ([8]; 1280 g/ha): 100%; Post-emergence efficacy against KCHSC in % (Kochia scoparia (KCHSC) [9]; 80 g/ha): 90%; Post-emergence efficacy against STEME (Stellaria media (STEME) [11]; 320 g/ha): 90%; Pre-emergence efficacy against VERPE in % (Veronica persica (VERPE) [13]): 100%
